Data as given in ChEMBL document CHEMBL1949642 (Bioorg Med Chem Lett, 2012).
Values after ≈ are worked out from the molar mass of the structure shown. Blank lines part the entries; values can stand above or below the compound they belong to. Active and inactive are the calls of the source. The calls are words filed in the database; no cut-off is given here.

Key:
[1] = Apparent permeability from apical to basal side of human Caco2 cells at 10 uM; assay type: ADME, cell-based; conditions: Caco-2
[2] = target: T1, C-C chemokine receptor type 5 (Homo sapiens, UniProt P51681); assay: Displacement of [125I]MIP-1alpha from human recombinant CCR5 expressed in CHO cells; assay type: cell-based
Target sequence in this assay (P51681 whole entry): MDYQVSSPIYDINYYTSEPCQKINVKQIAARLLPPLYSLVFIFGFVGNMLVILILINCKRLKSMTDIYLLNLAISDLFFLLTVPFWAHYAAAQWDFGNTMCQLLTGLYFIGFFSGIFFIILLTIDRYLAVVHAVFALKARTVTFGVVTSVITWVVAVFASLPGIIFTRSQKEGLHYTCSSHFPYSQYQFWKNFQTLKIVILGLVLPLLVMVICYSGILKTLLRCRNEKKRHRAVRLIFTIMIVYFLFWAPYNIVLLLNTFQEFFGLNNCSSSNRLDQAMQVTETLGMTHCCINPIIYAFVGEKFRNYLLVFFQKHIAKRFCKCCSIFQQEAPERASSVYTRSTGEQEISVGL

[3] = Clearance in female dog at 1 to 2 mg/kg, iv; assay type: ADME, organism-based, Canis lupus familiaris; set-up: dose 1-2 mg/kg, route intravenous; conditions: in vivo
[4] = Fraction unbound in human plasma; assay type: ADME, cell-free
[5] = species: Homo sapiens; assay: Antiarthritis activity in rheumatoid arthritis patient at 150 mg; assay type: functional, organism-based
[6] = Lipophilicity, log D of the compound at pH 7.4; conditions: buffer
[7] = Aqueous solubility of the compound at pH 7.4; assay type: physicochemical; conditions: buffer
[8] = Plasma protein binding in human; assay type: ADME, cell-free; conditions: read-out: PPB (converted)
[9] = Volume of distribution at steady state in rat at 1 to 2 mg/kg, iv; assay type: ADME, organism-based; set-up: dose 1-2 mg/kg, route intravenous; conditions: in vivo, read-out: Vdss
[10] = Volume of distribution at steady state in female dog at 1 to 2 mg/kg, iv; assay type: ADME, organism-based, Canis lupus familiaris; set-up: dose 1-2 mg/kg, route intravenous; conditions: in vivo, read-out: Vdss
[11] = Dissociation constant, pKa of the compound; assay type: physicochemical
[12] = Apparent permeability from apical to basal side of human Caco2 cells at 100 uM; assay type: ADME, cell-based; conditions: Caco-2
[13] = target: Cytochrome P450 2C9 (Homo sapiens, UniProt P11712); assay: Inhibition of CYP2C9; assay type: ADME
Sequence of Cytochrome P450 2C9 (P11712 whole entry): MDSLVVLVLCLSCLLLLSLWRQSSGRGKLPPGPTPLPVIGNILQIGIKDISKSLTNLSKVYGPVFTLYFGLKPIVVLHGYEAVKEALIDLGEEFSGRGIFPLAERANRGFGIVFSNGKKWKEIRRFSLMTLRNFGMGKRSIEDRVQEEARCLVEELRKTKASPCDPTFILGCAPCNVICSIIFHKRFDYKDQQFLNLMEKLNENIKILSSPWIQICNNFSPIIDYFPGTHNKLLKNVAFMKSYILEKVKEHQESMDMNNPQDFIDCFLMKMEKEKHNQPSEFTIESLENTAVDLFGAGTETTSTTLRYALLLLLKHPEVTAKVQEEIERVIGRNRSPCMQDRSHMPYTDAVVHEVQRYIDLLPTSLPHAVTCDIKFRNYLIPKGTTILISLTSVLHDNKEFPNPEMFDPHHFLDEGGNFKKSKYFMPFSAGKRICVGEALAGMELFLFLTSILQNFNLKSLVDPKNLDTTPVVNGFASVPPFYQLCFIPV

[14] = Oral bioavailability in female dog at 2 to 5 mg/kg; assay type: ADME, organism-based, Canis lupus familiaris; conditions: in vivo
[15] = Half life in rat at 1 to 2 mg/kg, iv; assay type: ADME, organism-based; set-up: dose 1-2 mg/kg, route intravenous; conditions: in vivo
[16] = target: Cytochrome P450 2C19 (Homo sapiens, UniProt P33261); assay: Inhibition of CYP2C19; assay type: ADME
Sequence of Cytochrome P450 2C19 (P33261 whole entry): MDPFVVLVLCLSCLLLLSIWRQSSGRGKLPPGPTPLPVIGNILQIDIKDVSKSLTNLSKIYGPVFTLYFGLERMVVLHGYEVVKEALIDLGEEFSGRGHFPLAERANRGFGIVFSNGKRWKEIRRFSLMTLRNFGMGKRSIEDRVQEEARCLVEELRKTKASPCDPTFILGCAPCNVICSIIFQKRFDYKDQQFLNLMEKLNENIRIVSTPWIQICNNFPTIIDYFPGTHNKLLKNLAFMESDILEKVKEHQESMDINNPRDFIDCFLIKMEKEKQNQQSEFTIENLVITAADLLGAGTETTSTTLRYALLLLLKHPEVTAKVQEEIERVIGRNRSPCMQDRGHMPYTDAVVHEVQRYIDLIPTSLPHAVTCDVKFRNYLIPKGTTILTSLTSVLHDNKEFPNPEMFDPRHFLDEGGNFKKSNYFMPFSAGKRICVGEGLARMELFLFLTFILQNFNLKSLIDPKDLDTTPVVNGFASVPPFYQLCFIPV

[17] = Apparent permeability from basal to apical side of human Caco2 cells at 100 uM; assay type: ADME, cell-based; conditions: Caco-2
[18] = target: Cytochrome P450 3A4 (Homo sapiens, UniProt P08684); assay: Inhibition of CYP3A4; assay type: ADME
Sequence of Cytochrome P450 3A4 (P08684 whole entry): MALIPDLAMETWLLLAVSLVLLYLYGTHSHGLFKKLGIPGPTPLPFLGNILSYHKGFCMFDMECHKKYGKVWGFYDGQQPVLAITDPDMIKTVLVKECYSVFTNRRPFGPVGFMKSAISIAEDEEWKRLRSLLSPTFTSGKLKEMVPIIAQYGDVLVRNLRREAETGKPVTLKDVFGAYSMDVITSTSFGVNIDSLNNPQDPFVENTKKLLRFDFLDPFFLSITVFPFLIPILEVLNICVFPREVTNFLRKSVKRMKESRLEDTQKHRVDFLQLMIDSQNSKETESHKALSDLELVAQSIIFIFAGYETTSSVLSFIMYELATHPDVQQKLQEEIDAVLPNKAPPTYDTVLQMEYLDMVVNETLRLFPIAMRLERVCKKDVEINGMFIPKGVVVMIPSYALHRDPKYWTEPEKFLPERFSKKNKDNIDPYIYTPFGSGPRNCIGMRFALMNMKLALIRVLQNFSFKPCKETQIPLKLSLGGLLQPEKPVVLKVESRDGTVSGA

[19] = target: T2, Cytochrome P450 1A1 (Homo sapiens, UniProt P04798); assay: Inhibition of CYP1A1; assay type: ADME
T2 sequence (P04798 whole entry): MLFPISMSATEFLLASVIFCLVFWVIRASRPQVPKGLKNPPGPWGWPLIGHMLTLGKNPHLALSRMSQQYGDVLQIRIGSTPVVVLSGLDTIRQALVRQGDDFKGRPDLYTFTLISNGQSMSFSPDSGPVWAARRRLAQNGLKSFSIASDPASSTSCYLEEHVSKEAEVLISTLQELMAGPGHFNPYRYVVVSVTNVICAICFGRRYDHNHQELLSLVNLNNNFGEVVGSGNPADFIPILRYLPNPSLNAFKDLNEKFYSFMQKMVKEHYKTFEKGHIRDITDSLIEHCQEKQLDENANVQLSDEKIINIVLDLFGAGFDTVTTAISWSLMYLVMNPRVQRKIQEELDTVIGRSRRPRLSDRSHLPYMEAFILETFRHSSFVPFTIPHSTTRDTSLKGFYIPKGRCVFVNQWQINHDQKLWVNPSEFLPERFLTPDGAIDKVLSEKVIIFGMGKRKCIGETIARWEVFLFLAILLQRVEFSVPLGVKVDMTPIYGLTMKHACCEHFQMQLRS

[20] = Clearance in rat at 1 to 2 mg/kg, iv; assay type: ADME, organism-based; set-up: dose 1-2 mg/kg, route intravenous; conditions: in vivo
[21] = target: Cytochrome P450 2D6 (Homo sapiens, UniProt P10635); assay: Inhibition of CYP2D6; assay type: ADME
Sequence of Cytochrome P450 2D6 (P10635 whole entry): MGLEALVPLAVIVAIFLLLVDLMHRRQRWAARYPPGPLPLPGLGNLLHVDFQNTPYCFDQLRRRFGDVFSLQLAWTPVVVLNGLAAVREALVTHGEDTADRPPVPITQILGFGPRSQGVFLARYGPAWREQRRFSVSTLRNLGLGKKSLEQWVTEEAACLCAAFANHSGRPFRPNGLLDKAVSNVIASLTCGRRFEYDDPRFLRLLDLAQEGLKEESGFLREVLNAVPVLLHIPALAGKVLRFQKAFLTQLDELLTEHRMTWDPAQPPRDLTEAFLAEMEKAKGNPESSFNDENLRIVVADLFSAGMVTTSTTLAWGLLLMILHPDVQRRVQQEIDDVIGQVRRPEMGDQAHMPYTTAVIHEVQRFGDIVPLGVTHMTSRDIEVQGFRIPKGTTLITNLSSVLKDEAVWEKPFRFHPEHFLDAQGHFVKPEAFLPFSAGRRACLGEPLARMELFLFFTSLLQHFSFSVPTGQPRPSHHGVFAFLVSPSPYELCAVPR

[22] = Oral bioavailability in male dog at 2 to 5 mg/kg; assay type: ADME, organism-based, Canis lupus familiaris; conditions: in vivo
[23] = Half life in female dog at 1 to 2 mg/kg, iv; assay type: ADME, organism-based, Canis lupus familiaris; set-up: dose 1-2 mg/kg, route intravenous; conditions: in vivo
[24] = Volume of distribution at steady state in male dog at 1 to 2 mg/kg, iv; assay type: ADME, organism-based, Canis lupus familiaris; set-up: dose 1-2 mg/kg, route intravenous; conditions: in vivo, read-out: Vdss
[25] = target: T1, C-C chemokine receptor type 5; assay: Antagonist activity at CCR5 in human whole blood assessed as inhibition of MIP-1beta-induced receptor internalization; assay type: functional, tissue-based
Target sequence in this assay (P51681 whole entry, looked up): as the sequence (P51681 whole entry) above

[26] = Oral bioavailability in rat at 2 to 5 mg/kg; assay type: ADME, organism-based; conditions: in vivo
[27] = Apparent permeability from basal to apical side of human Caco2 cells at 10 uM; assay type: ADME, cell-based; conditions: Caco-2
[28] = Clearance in male dog at 1 to 2 mg/kg, iv; assay type: ADME, organism-based, Canis lupus familiaris; set-up: dose 1-2 mg/kg, route intravenous; conditions: in vivo
[29] = Half life in male dog at 1 to 2 mg/kg, iv; assay type: ADME, organism-based, Canis lupus familiaris; set-up: dose 1-2 mg/kg, route intravenous; conditions: in vivo
[30] = Intrinsic clearance in human liver microsomes
[31] = target: Voltage-gated inwardly rectifying potassium channel KCNH2 (Homo sapiens, UniProt Q12809); assay: Displacement of 3,7-Bis[2-(4-nitro[3,5-3H]phenyl)ethyl]-3,7-diazabicyclo[3.3.1]nonane from human ERG expressed in HEK cells after 3 hrs
Sequence of Voltage-gated inwardly rectifying potassium channel KCNH2 (Q12809 whole entry): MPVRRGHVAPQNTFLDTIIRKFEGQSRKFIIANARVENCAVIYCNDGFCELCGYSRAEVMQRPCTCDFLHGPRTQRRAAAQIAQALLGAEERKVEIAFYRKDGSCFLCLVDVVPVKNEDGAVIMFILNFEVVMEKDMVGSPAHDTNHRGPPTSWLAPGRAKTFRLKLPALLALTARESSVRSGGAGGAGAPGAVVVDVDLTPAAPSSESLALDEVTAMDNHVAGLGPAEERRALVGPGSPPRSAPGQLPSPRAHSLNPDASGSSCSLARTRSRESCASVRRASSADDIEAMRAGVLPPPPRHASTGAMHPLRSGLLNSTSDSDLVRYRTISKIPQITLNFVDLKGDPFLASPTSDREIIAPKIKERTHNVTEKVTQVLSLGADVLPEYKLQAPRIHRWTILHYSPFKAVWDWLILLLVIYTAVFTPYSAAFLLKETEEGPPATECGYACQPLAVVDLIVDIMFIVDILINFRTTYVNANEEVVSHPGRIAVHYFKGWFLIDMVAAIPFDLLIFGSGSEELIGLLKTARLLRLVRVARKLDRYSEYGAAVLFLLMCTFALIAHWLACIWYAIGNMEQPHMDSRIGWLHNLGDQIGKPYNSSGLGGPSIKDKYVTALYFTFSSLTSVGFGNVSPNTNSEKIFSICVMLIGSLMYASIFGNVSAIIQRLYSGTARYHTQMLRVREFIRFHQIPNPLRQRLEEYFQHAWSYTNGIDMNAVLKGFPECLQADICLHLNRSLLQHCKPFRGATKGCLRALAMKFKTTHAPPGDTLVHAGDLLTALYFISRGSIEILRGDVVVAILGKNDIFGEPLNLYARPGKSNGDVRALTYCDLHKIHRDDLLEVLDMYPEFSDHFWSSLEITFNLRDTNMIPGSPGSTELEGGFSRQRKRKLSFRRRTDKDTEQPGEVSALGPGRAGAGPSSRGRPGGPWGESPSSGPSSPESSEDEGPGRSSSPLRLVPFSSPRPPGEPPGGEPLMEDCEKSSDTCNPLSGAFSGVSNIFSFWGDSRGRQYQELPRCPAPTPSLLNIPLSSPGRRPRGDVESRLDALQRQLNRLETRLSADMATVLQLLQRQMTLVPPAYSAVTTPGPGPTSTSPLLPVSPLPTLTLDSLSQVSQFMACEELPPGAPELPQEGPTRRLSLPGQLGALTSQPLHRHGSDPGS

Papp A→B at 10 µM [1]: 0.7 ×10⁻⁶ cm/s
IC50 [2]: 0.26 nM
clearance [3]: 22 mL/min/kg
fraction unbound [4]: 0.08
logD [6]: 1.5
solubility [7]: 2700 µM (≈ 1730 µg/mL)
fraction unbound [8]: 0.08
Vd [9]: 5 L/kg
Vd [10]: 5.8 L/kg
pKa [11]: 8.4
Papp A→B at 100 µM [12]: 1.4 ×10⁻⁶ cm/s
IC50 [13]: > 50000 nM
bioavailability [14]: 51%
half-life [15]: 2.1 h
IC50 [16]: > 50000 nM
Papp B→A at 100 µM [17]: 11 ×10⁻⁶ cm/s
IC50 [18]: 9000 nM
IC50 [19]: > 50000 nM
clearance [20]: 38 mL/min/kg
IC50 [21]: 23000 nM
bioavailability [22]: 46%
half-life [23]: 3.8 h
Vd [24]: 4.5 L/kg
A2 [25]: 0.76 nM
bioavailability [26]: 41%
Papp B→A at 10 µM [27]: 9.2 ×10⁻⁶ cm/s
clearance [28]: 15 mL/min/kg
half-life [29]: 3.9 h
microsomal CLint ([30]; liver microsomes): 18 µL/min/mg
Structure (SMILES): CCN(C(=O)Cc1ccc(S(C)(=O)=O)cc1)C1CCN(CC[C@@H](c2cc(F)cc(F)c2)C2CCN(S(C)(=O)=O)CC2)CC1 [AZD5672]
Activity [5]: inactive

IC50 [2]: 83 nM
logD [6]: 0.9
microsomal CLint ([30]; liver microsomes): 21 µL/min/mg
Structure (SMILES): CCN(C(=O)Cc1ccc(S(C)(=O)=O)cc1)C1CCN(CCC(c2ccccc2)N2CCC(C(C)=O)CC2)CC1 (racemic)

IC50 [2]: 339 nM
logD [6]: 2
Structure (SMILES): CCN(C(=O)Cc1ccc(S(C)(=O)=O)cc1)C1CCN(CCC(c2ccccc2)N2CCC(C)CC2)CC1 (racemic)

A2 [25]: 1.1 nM
microsomal CLint ([30]; liver microsomes): 8 µL/min/mg
Structure (SMILES): CCN(C(=O)Cc1ccc(S(C)(=O)=O)cc1)C1CCN(CC[C@H](c2ccc(S(C)(=O)=O)cc2)c2cc(F)cc(F)c2)CC1

IC50 [2]: 2.4 nM
logD [6]: 1.6
microsomal CLint ([30]; liver microsomes): 61 µL/min/mg
Structure (SMILES): CCN(C(=O)Cc1ccc(S(C)(=O)=O)cc1)C1CCN(CCC(c2ccccc2)C2CCN(S(=O)(=O)CC)CC2)CC1 (racemic)

IC50 [2]: 15 nM
logD [6]: 1
microsomal CLint ([30]; liver microsomes): 52 µL/min/mg
Structure (SMILES): CCN(C(=O)Cc1ccc(S(C)(=O)=O)cc1)C1CCN(CCC(c2ccccc2)N2CCN(S(=O)(=O)CC)CC2)CC1 (racemic)

IC50 [2]: 1.6 nM
microsomal CLint ([30]; liver microsomes): 33 µL/min/mg
Structure (SMILES): CCN(C(=O)Cc1ccc(S(C)(=O)=O)cc1)C1CCN(CC[C@@H](c2ccccc2)N2CCN(S(=O)(=O)C(F)(F)F)CC2)CC1
IC50 [31]: 3200 nM

IC50 [2]: < 0.1 nM
logD [6]: 3.4
microsomal CLint ([30]; liver microsomes): 28 µL/min/mg
Structure (SMILES): CCN(C(=O)Cc1ccc(S(C)(=O)=O)cc1)C1CCN(CC[C@@H](c2ccccc2)C2CCN(S(=O)(=O)C(F)(F)F)CC2)CC1
IC50 [31]: 1200 nM

IC50 [2]: 3.7 nM
clearance [3]: 7.5 mL/min/kg
logD [6]: 1.2
Vd [9]: 7.7 L/kg
Vd [10]: 2.2 L/kg
bioavailability [14]: 22%
half-life [15]: 2.4 h
clearance [20]: 71 mL/min/kg
bioavailability [22]: 15%
half-life [23]: 4.7 h
Vd [24]: 3.2 L/kg
bioavailability [26]: 7.3%
clearance [28]: 12 mL/min/kg
half-life [29]: 8.3 h
microsomal CLint ([30]; microsomes): 8 µL/min/mg
Structure (SMILES): CCN(C(=O)Cc1ccc(S(C)(=O)=O)cc1)C1CCN(CC[C@@H](c2cc(F)cc(F)c2)N2CCN(S(C)(=O)=O)CC2)CC1
IC50 [31]: > 32000 nM

IC50 [2]: 794 nM
logD [6]: 0.6
Structure (SMILES): CCN(C(=O)Cc1ccc(S(C)(=O)=O)cc1)C1CCN(CC[C@@H](c2cccc(S(C)(=O)=O)c2)C2CCN(S(C)(=O)=O)CC2)CC1

IC50 [2]: 5 nM
logD [6]: 2.7
microsomal CLint ([30]; liver microsomes): 26 µL/min/mg
Structure (SMILES): CCN(C(=O)Cc1ccc(S(C)(=O)=O)cc1)C1CCN(CCC(c2ccccc2)N2CCN(c3ccccc3)CC2)CC1 (racemic)
IC50 [31]: 13000 nM

IC50 [2]: 0.44 nM
logD [6]: 1.5
microsomal CLint ([30]; liver microsomes): 104 µL/min/mg
Structure (SMILES): CCN(C(=O)Cc1ccc(S(C)(=O)=O)cc1)C1CCN(CC[C@@H](c2cccc(C)c2)C2CCN(S(C)(=O)=O)CC2)CC1

IC50 [2]: 5.4 nM
logD [6]: 2.2
microsomal CLint ([30]; liver microsomes): 28 µL/min/mg
Structure (SMILES): CCN(C(=O)Cc1ccc(S(C)(=O)=O)cc1)C1CCN(CCC(c2ccccc2)C2CCN(S(=O)(=O)CC(F)(F)F)CC2)CC1 (stereo not drawn)

IC50 [2]: < 0.1 nM
logD [6]: 1.9
microsomal CLint ([30]; liver microsomes): > 150 µL/min/mg
Structure (SMILES): CCN(C(=O)Cc1ccc(S(C)(=O)=O)cc1)C1CCN(CC[C@@H](c2cc(C)cc(C)c2)C2CCN(S(C)(=O)=O)CC2)CC1

IC50 [2]: 162 nM
logD [6]: 3.7
Structure (SMILES): CCN(C(=O)Cc1ccc(S(C)(=O)=O)cc1)C1CCN(CCC(c2ccccc2)N2CCC(Cc3ccccc3)CC2)CC1 (racemic)
